Test results from ChEMBL document CHEMBL5550105, “Progress on synthesis and structure-activity relationships of lamellarins over the past decade” (Eur J Med Chem, 2024).

Experiments:
[1] = biological target: ATP-dependent translocase ABCB1 (Homo sapiens, UniProt P08183); assay: Inhibition of p-glycoprotein (unknown origin) expressed in MDCK-MDR1 cells; assay type: cell-based
MCF7 = assay: Antiproliferative activity against human MCF7 cells assessed as reduction in cell growth incubated for 48 hrs by MTT assay; assay type: functional, cell-based; details: MCF7, 48 h
HT-29 = assay: Growth inhibition of human HT-29 cells measured for 72 hrs by SRB assay; assay type: functional
DU-145 = assay: Growth inhibition of human DU-145 cells measured for 72 hrs by SRB assay; assay type: functional
HeLa = assay: Cytotoxicity against human HeLa cells assessed as reduction in cell viability measured for 48 hrs by crystal violet staining based analysis; assay type: functional
Acetylcholinesterase = Acetylcholinesterase (Homo sapiens, UniProt P22303); assay: Inhibition of human recombinant AChE using acetylthiocholine iodide substrate incubated for 5 mins by Ellman's spectrophotometric analysis
Acetylcholinesterase, sequence (P22303 whole entry): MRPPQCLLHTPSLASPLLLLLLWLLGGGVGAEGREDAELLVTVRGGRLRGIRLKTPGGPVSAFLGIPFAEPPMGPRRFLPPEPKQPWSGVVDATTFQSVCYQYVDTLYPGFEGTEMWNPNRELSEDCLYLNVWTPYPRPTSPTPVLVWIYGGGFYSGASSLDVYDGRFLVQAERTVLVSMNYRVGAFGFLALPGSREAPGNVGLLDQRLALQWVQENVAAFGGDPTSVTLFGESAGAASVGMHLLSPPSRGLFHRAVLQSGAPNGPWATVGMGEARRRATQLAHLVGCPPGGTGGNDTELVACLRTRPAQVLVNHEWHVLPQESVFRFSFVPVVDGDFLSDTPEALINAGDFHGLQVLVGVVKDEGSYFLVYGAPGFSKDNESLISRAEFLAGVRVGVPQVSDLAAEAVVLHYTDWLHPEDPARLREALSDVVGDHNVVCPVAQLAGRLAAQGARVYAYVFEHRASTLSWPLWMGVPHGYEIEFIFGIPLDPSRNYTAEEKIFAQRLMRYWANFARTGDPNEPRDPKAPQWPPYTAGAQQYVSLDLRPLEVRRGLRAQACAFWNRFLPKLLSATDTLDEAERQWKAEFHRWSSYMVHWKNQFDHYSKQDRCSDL

ATP-dependent translocase ABCB1, sequence (P08183 whole entry): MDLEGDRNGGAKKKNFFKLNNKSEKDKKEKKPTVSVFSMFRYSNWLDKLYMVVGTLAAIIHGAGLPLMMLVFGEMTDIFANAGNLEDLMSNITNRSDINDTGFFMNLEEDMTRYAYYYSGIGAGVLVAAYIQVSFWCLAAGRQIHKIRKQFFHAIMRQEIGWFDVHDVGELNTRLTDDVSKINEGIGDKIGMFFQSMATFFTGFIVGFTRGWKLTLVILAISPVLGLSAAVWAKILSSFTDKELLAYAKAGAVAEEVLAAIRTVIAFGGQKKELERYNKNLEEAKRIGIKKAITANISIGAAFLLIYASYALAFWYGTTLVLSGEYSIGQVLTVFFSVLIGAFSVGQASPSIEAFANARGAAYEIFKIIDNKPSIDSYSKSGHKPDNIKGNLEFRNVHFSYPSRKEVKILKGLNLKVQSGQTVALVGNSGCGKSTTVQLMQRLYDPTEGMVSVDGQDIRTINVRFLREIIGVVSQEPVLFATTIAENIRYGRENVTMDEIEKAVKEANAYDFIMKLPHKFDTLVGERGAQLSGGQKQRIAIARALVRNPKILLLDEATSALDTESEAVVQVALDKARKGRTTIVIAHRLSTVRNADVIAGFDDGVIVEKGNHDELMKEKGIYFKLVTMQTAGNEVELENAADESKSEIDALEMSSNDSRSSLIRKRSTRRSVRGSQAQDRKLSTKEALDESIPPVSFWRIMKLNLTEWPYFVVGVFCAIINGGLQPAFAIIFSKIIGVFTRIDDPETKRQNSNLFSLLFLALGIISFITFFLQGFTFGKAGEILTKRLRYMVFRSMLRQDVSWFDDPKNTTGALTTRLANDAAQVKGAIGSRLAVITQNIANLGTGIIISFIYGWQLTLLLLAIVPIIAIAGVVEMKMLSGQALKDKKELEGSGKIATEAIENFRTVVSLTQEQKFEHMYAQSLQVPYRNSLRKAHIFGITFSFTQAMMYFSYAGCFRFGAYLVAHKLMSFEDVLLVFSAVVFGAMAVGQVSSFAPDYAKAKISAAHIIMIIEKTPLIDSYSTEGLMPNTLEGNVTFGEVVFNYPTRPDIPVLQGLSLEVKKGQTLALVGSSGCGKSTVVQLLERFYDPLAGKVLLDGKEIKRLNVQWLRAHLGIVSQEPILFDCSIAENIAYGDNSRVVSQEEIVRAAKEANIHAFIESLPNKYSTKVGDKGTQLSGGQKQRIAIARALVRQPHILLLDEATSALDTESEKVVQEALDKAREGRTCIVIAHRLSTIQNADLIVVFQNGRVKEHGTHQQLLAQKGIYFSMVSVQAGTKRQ

CCOc1ccc(-c2c(C=O)c(-c3ccco3)n3c2-c2cc(OCC)c(OCC)cc2CC3)cc1OCC
IC50 [1]: 0.19 µM

Cc1ccc(-c2nc3c(=O)oc4ccccc4c3c3ccoc23)cc1
IC50 (MCF7): 6.83 µM

COCCOCCOCC(=O)Oc1ccc(-c2c3c4cc(OC)c(OC(=O)COCCOCCOC)cc4oc(=O)c3n3ccc4cc(O)c(OC)cc4c23)cc1OC
GI50 (HT-29): 1.28 µM

COc1cc(-c2c3c4cc(OC)c(OC(=O)[C@H](N)C(C)C)cc4oc(=O)c3n3ccc4cc(OC(=O)[C@@H](N)C(C)C)c(OC)cc4c23)ccc1OC(=O)[C@@H](N)C(C)C
GI50 (DU-145): 0.0108 µM

COc1cc(-c2c3c4cc(OC)c(O)cc4[nH]c(=O)c3n3ccc4cc(O)c(OC)cc4c23)ccc1O
IC50 (HeLa): 0.317 µM

CCOc1cc2c(cc1OCC)-c1c(-c3ccc(Cl)cc3)c(/C=N/c3ccc(/N=C/c4c(-c5ccc(Cl)cc5)c5n(c4-c4ccccc4)CCc4cc(OC)c(OC)cc4-5)cc3)c(-c3ccccc3)n1CC2
IC50 (Acetylcholinesterase): 4.69 µM

COc1cc(-c2c3c4cc(OC)c(O)cc4oc(=O)c3n3ccc4cc(O)c(OC)cc4c23)ccc1O [LAMELLARIN D]
GI50 (HT-29): 3 µM | GI50 (DU-145): 0.0109 µM

CCOc1cc2c(cc1OCC)-c1c(-c3ccc(F)cc3)c(/C=N/c3ccc(O)cc3)c(-c3ccccc3)n1CC2
IC50 [1]: 1.01 µM
